Experimental data from patent US20200031771A1, “SUBSTITUTED PHENYLPROPIONIC ACID ENANTIOMER AND MANUFACTURING METHOD, COMPOSITION, AND APPLICATION OF SAME” (SHENZHEN CHIPSCREEN BIOSCIENCES CO., LTD., priority 2016, published 2020).

Legend:
[1] = system: db/db mice; assay: Fasting blood glucose in db/db mice during 14 days of oral administration; format: in vivo, mouse; conditions: oral once a day, enantiomers 20 mg/kg, rosiglitazone 5 mg/kg, 6 h fasting; for Fasting blood glucose, average value, Day 0: Day 0, n = 10; for Fasting blood glucose, average value, Day 3: Day 3, n = 10; for Fasting blood glucose, average value, Day 6: Day 6, n = 10; for Fasting blood glucose, average value, Day 9: Day 9, n = 10; for Fasting blood glucose, average value, Day 12: Day 12, n = 10; for Fasting blood glucose, average value, Day 14: Day 14, n = 10
Experimental: (§1) The route of administration was oral, the dose was 20 mg/kg in the administration group and 5 mg/kg in the control group, the frequency of administration was once a day, and the administration period was 14 days. […] On days 0, 3, 6, 9, 12, and 14, after fasting for 6 hours after administration, blood was collected from the tail vein and fasting blood glucose levels was measured by a blood glucose meter and recorded.

[2] = biological target: T1, RXR/PPAR-6 heterodimer (PPARδ) (Homo sapiens, UniProt Q03181); assay: PPARδ in vitro reporter gene assay (pGL3-PPRE reporter, PPARδ and RXR plasmids) in L-02 cells; format: cell-based; conditions: 24 h after compound addition, luciferase corrected by GFP, read-out: EC50 (semi-activating activity) activating PPAR-6
T1 construct: expressed in transfected cells; host or cells: L-02
T1 sequence (Q03181 1-441): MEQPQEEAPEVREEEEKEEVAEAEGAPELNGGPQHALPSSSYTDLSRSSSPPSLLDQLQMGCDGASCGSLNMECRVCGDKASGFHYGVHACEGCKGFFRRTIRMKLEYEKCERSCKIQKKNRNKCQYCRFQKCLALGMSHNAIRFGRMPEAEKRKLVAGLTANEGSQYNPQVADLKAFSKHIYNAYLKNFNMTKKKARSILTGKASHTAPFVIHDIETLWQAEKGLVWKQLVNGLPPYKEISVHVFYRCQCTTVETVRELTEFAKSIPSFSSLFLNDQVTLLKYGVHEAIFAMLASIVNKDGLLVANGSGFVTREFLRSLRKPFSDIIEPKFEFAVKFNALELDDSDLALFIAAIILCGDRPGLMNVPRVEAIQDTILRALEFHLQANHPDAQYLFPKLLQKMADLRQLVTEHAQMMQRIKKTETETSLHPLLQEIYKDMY
T1 sequence (P19793 1-462 partner): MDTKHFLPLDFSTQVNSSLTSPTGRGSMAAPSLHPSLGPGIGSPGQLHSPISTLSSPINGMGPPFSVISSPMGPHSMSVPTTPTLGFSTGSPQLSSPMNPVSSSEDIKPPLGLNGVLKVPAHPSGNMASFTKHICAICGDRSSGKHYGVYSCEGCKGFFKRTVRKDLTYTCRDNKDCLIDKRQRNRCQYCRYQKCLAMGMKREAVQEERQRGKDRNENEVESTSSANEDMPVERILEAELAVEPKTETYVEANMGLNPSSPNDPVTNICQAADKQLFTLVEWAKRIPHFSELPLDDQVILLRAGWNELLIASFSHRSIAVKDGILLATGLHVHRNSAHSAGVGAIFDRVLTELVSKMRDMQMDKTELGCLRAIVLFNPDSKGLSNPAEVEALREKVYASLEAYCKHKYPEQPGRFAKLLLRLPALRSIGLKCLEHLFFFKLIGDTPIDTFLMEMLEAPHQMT
Experimental: The PPARδ reporter gene detection system comprises a pGL3-PPRE fluorescent reporter gene plasmid (PPRE enhancer element was inserted into the upstream of the promoter), PPARδ expression plasmid, RXR expression plasmid, and a green fluorescent protein GFP expression plasmid.
(§2) The above plasmids were co-transfected (Fugene 6.0 transfection reagent) into human hepatoma cell line L-02. 48 hours after transfection, different concentrations of test compounds were added. 24 hours after administration, the cells were treated with a luciferase assay kit (Promega E1910) and the fluorescence intensity of GFP (wavelength 485-527 nm) and luciferase substrate (wavelength 562 nm) were detected using a fluorescence detector (Fluoroskan Ascent FL), respectively. The GFP signal is used as an internal reference to correct the detected luciferase substrate signal, and a relative reporter activation intensity was obtained by comparing the above corrected signal to the blank control (without treatment of the compounds). The semi-activating activity (EC50) of the test compound was calculated from concentration gradient data.

[3] = biological target: T2, RXR/PPARγ heterodimer (Homo sapiens, UniProt P37231); assay: PPARγ in vitro reporter gene assay (pACOX reporter, PPARγ and RXR plasmids) in L-02 cells; format: cell-based; conditions: 24 h after compound addition, luciferase corrected by GFP, read-out: EC50 (semi-activating activity) activating PPARγ
T2 construct: expressed in transfected cells; host or cells: L-02
T2 sequence (P37231 1-505): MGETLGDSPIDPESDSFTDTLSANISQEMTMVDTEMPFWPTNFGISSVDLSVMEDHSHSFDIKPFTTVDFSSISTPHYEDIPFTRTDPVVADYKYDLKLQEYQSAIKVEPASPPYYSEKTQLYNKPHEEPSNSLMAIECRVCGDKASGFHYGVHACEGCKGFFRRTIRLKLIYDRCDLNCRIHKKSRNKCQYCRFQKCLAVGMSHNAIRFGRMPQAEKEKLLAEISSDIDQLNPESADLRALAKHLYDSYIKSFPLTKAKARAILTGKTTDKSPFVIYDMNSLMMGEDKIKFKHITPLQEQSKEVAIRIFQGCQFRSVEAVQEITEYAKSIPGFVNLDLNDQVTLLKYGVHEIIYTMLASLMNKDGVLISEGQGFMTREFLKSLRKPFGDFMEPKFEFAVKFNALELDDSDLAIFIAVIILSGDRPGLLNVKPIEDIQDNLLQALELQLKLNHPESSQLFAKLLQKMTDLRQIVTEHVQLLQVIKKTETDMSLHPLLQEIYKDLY
T2 sequence (P19793 1-462 partner): T1 sequence (P19793 1-462 partner)
Experimental: The PPARγ reporter gene detection system comprises a pACOX fluorescent reporter gene plasmid (the promoter comprises PPRE sequence), PPARγ expression plasmid, RXR expression plasmid, and a green fluorescent protein GFP expression plasmid.
as §2, with “signal was” for “signal is”

[4] = biological target: T3, human PPARα (Homo sapiens, UniProt Q07869); assay: PPARα in vitro reporter gene assay (PPRE-luciferase) in L-02 cells; format: cell-based; conditions: 24 h after compound addition, luciferase corrected by GFP, read-out: EC50 (semi-activating activity) activating PPARα
T3 construct: expressed in transfected cells; host or cells: L-02
T3 sequence (Q07869 1-468): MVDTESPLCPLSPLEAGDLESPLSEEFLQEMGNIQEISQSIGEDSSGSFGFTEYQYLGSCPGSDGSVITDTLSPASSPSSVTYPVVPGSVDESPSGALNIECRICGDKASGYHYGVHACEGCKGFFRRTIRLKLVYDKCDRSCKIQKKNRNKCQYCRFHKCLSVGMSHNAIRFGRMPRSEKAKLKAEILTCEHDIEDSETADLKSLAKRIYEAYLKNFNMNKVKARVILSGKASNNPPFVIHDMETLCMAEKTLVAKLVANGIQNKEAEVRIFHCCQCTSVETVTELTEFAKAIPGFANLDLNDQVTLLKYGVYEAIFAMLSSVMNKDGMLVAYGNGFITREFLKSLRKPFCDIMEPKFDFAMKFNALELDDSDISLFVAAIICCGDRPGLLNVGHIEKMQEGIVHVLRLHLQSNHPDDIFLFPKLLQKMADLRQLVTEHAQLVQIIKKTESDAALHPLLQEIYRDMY
Experimental: The PPARα reporter gene detection system comprises a pCDNA3.1 luciferase expression plasmid (PPRE enhancer element was inserted into the upstream of the promoter), a green fluorescent protein GFP expression plasmid, and a human PPARα expression plasmid.
as §2, with “Ascent FL)” for “Ascent FL),”, “signal was” for “signal is”

[5] = system: db/db mice; assay: Glucose tolerance test (OTGG) in db/db mice after 14 days of administration; format: in vivo, mouse; conditions: n = 10; for Blood glucose in glucose tolerance test, average value, 15 min: 15 min after oral 2 g/kg glucose; for Blood glucose in glucose tolerance test, average value, 30 min: 30 min after oral 2 g/kg glucose; for Blood glucose in glucose tolerance test, average value, 60 min: 60 min after oral 2 g/kg glucose; for Blood glucose in glucose tolerance test, average value, 120 min: 120 min after oral 2 g/kg glucose; for Glucose tolerance test AUC, average value: oral 2 g/kg glucose, 0-120 min; for Blood glucose in glucose tolerance test, average value, 0 min: overnight fast, before oral 2 g/kg glucose (0 min)
Experimental: as §1
After 14 days of administration, the animals were fasted overnight (<10 hours), and orally given 2 g/kg of glucose on the next day. Blood was collected from the tail vein at the 0 (pre-administration or fasting blood glucose level), 15, 30, 60 and 120 minutes after administration, respectively, and blood glucose levels were then measured by blood glucose meter and recorded.

Row | SMILES | Fasting blood glucose, average value, Day 0 [1] | Fasting blood glucose, average value, Day 3 [1] | Fasting blood glucose, average value, Day 6 [1] | Fasting blood glucose, average value, Day 9 [1] | Fasting blood glucose, average value, Day 12 [1] | Fasting blood glucose, average value, Day 14 [1] | EC50 [2] [µM] | EC50 [3] [µM] | EC50 [4] [µM] | Blood glucose in glucose tolerance test, average value, 15 min [5] | Blood glucose in glucose tolerance test, average value, 30 min [5] | Blood glucose in glucose tolerance test, average value, 60 min [5] | Blood glucose in glucose tolerance test, average value, 120 min [5] | Glucose tolerance test AUC, average value [5] | Blood glucose in glucose tolerance test, average value, 0 min [5]
1 | O=C(c1ccc(F)cc1)c1ccccc1NC(Cc1ccc(OCCn2c3ccccc3c3ccccc32)cc1)C(=O)O (single isomer, unassigned; (-)) [Enantiomer 1, (−)-2-[(2-(4-fluorobenzoyl)phenyl)amino]-3-[(4-(2-carbazole-ethoxy)phenyl)]propionic acid] | 18.43 | 18.2 | 14.7 | 18.14 | 16.18 | 10.98 | 1.93 | 0.076 | 1.14 | 28.02 | 32.26 | 26.6 | 14.69 | 47.77 | 10.98
2 | O=C(c1ccc(F)cc1)c1ccccc1NC(Cc1ccc(OCCn2c3ccccc3c3ccccc32)cc1)C(=O)O (single isomer, unassigned; (+)) [Enantiomer 2, (+)-2-[(2-(4-fluorobenzoyl)phenyl)amino]-3-[(4-(2-carbazole-ethoxy)phenyl)]propionic acid] | 18.86 | 23.99 | 20.03 | 26.01 | 26.44 | 17.18 | > 10 | 2.71 | 5.38 | 31.87 | 33.3 | 30.94 | 25.75 | 59.16 | 17.18
3 | CN(CCOc1ccc(CC2SC(=O)NC2=O)cc1)c1ccccn1 (centres unmarked) [rosiglitazone, reference compound] | 19.09 | 13.58 | 13.8 | 15.05 | 14.44 | 11.29 | – | – | – | 28.11 | 31.22 | 25.08 | 13.61 | – | 11.29
